From US20260335323A1, “CHIMERIC MOLECULE” (UCL Business Ltd, priority 2023, published 2026)

Test system: SH-SY5Y cells
Test: mito-mKeima mitophagy assay (mitophagy index)
Type: cell-based, human
Details: for enhancement of mitophagy: co-treating with excess TSPO ligand
Method: FIG. 1. The structure of AUTAC-4 is shown in (A). (B) Representative images of SH-SY5Y cells stably expressing the mito-mKeima reporter treated with AUTAC4 for 18 h. Nuclei were stained with Hoechst 33342, healthy mitochondria are shown in green and mitochondria in lysosomes are shown in red. (C-E) Fold change in mitophagy index over time after treatment with increasing concentrations of AUTAC4 under treatment with DMSO (C), 3 mM CCCP (D) or 0.1/0.1 mM antimycin/oligomycin (E), also for 18 h. (F) Quantification of changes in mitochondrial membrane potential over time (DYm) by measuring the TMRM relative fluorescence intensity (RFI) treated with DMSO, 10 mM CCCP, 10 mM and 20 mM AUTAC4. Normalised to number of nuclei. (G) Representative western blot of SH-SY5Y cells treated with DMSO, 10 mM AUTAC4 or 10 mM AUTAC4+0.1/0.1 mM antimycin/oligomycin for 18 h and, probed for p62, b-actin and Tom20. Quantifications of western blot for changes in Tom20 and p62 levels shown in (H) and (I), respectively. (J) Representative images of PANC-1 cells stably expressing the mCherry-EGFP-LC3 tandem reporter. Nuclei stained with Hoechst 33342, autophagosomes are shown in the EGFP channel and autolysosomes in the mCherry channel. Fold change in the number of autophagosome (K) and autolysosome (L) puncta in AUTAC4 treated cells. All data shown are mean±SEM, n=3, *p<0.05, *** p<0.001. For mito-mKeima experiments, statistics were calculated by Two-way ANOVA with Tukey's multiple comparisons test. For western blots, TMRM and LC3 tandem reporter assay, statistics were calculated with one-way ANOVA with Tukey's multiple comparisons test.
FIG. 5. ULKTACs induce potent mitophagy after colocalisation and local activation of ULK1 at mitochondria (A) Representative immunofluorescence of PANC-1 cells treated with CCCP, ULKTACs or both and immunostained for TOM20 and ULK1 and counterstained with Alexa 488 and 568, respectively. Nuclei stained with Hoechst 33342. (B) Quantification of the colocalised ULK1 to TOM20 spot area of PANC-1 cells treated with DMSO, 5 mM CCCP, 10 mM BL-918, 10 mM BL-918+5 mM CCCP, […] NZ-65, […] NZ-65+5 mM CCCP, […] NZ-66, […] NZ-66+5 mM CCCP, 50 mM TSPO ligand, […] NZ-65+50 mM TSPO ligand, […] NZ-66+50 mM TSPO ligand. (C) Western blot of SH-SY5Y cells treated with 1 mM ULKTACs, 5 mM CCCP or both, probed for Mfn2, b-Actin and Tom20—quantifications are shown in (D) for Mfn2, normalised to Actin. (E) Representative images of SH-SY5Y cells stably expressing the mito-mKeima reporter treated with 3 mM CCCP, NZ-65 or both. Nuclei were stained with Hoechst 33342, healthy mitochondria are shown in green and mitochondria in lysosomes are shown in red. Fold change in mitophagy index over time after treatment for the indicated timepoints with title treatments alone or co-treated with 1.25 mM ULKTAC or 10 mM ULKTAC NZ-65 (F) or NZ-66 (G). Fold change in mitophagy index over time after treatment for the indicated timepoints with DMSO, 1.25 µM NZ-65 or NZ-66±50 µM TSPO ligand under co-treatment with DMSO (H) or 3 μM CCCP (I). […] Normalised to number of nuclei. All data shown are mean±SEM, n=3, *p<0.05, ** p<0.01, *** p<0.001. For colocalisation and TMRM experiments, one-way ANOVA with Dunnett's multiple comparisons test. For western blots, one-way ANOVA with Tukey's multiple comparisons test and unpaired t-test. For mito-mKeima experiment, two-way ANOVA with Tukey's multiple comparisons test.
SH-SY5Y stably expressing mito-mKeima were produced as previously described28,29. Cells were seeded in 384 well CellCarrier Ultra plates (PerkinElmer) 24 hours before treatment in complete media without phenol red. Cells were treated with increasing concentrations of BL-918, AUTAC4, NZ-65 or NZ-66, 24 hours prior to treatment with increasing concentrations of mitochondrial uncouplers to cause mitochondrial insult. SH-SY5Y mitochondria were treated with DMSO, 3 μM CCCP, 10 μM CCCP, 0.1/0.1 μM antimycin/oligomycin (AO), 0.5/0.5 µM AO or 1/1 μM AO. […]

[1] = co-treatment with antimycin/oligomycin

O=C(Nc1ccc(F)cc1F)[C@H](NC(=S)Nc1cc(C(F)(F)F)cc(C(F)(F)F)c1)c1ccccc1 [BL-918, reference compound]
induction of mitophagy (compound alone, higher concentrations): induction of mitophagy only at higher concentrations

O=C(Nc1cc(C(F)(F)F)cc(C(F)(F)F)c1)N[C@@H](C(=O)Nc1ccc(F)cc1F)c1ccc(OCc2cn(CCOCCOCCNC(=O)C(=O)c3c(-c4ccccc4)[nH]c4ccccc34)nn2)cc1 [NZ-65, (R)-2-(3-(3,5-bis(trifluoromethyl)phenyl)ureido)-N-(2,4-difluorophenyl)-2-(4-((1-(2-(2-(2-(2-oxo-2-(2-phenyl-1H-indol-3-yl)acetamido)ethoxy)ethoxy)ethyl)-1H-1,2,3-triazol-4-yl)methoxy)phenyl) acetamide]
enhancement of mitophagy: restricts enhancement of mitophagy | enhancement of induced mitophagy (co-treatment with CCCP): remarkably strong increases in mitophagy | enhancement of induced mitophagy [1]: remarkably strong increases in mitophagy

O=C(Nc1cc(C(F)(F)F)cc(C(F)(F)F)c1)N[C@@H](C(=O)Nc1ccc(F)cc1F)c1ccc(OCc2cn(CCCCCCNC(=O)C(=O)c3c(-c4ccccc4)[nH]c4ccccc34)nn2)cc1 [NZ-66, (R)-2-(3-(3,5-bis(trifluoromethyl)phenyl)ureido)-N-(2,4-difluorophenyl)-2-(4-((1-(6-(2-oxo-2-(2-phenyl-1H-indol-3-yl)acetamido)hexyl)-1H-1,2,3-triazol-4-yl)methoxy)phenyl) acetamide]
enhancement of mitophagy: restricts enhancement of mitophagy | enhancement of induced mitophagy (co-treatment with CCCP): remarkably strong increases in mitophagy | enhancement of induced mitophagy [1]: remarkably strong increases in mitophagy
